Data: ChEMBL document CHEMBL4831559, “Antitarget Selectivity and Tolerability of Novel Pyrrolo[2,3-d]pyrimidine RET Inhibitors” (ACS Med Chem Lett, 2021)
Blank lines part the entries; values can stand above or below the compound they belong to. The source made the active and inactive calls. The rule behind the calls is not given here.

Legend:
[1] = AUC in BALB/c mouse at 13.5 mg/kg, po measured by LC-MS/MS analysis; format: ADME, organism-based; design: dose 13.5 mg/kg; details: in vivo
[2] = Oral bioavailability in BALB/c mouse at 13.5 mg/kg measured by LC-MS/MS analysis; format: ADME, organism-based; details: in vivo
[3] = Half life in BALB/c mouse at 13.5 mg/kg, po measured by LC-MS/MS analysis; format: ADME, organism-based; details: in vivo
[4] = target: Proto-oncogene tyrosine-protein kinase receptor Ret (Homo sapiens, UniProt P07949); assay: Inhibition of RET (658 to 1072) (unknown origin) by HTRF assay
[5] = Volume of distribution at steady state in BALB/c mouse at 3.4 mg/kg, iv measured by LC-MS/MS analysis; format: ADME, organism-based; details: in vivo, read-out: Vdss
[6] = Half life in BALB/c mouse at 3.4 mg/kg, iv measured by LC-MS/MS analysis; format: ADME, organism-based; details: in vivo
[7] = Cmax in BALB/c mouse at 3.4 mg/kg, iv measured by LC-MS/MS analysis; format: ADME, organism-based; design: route intravenous, dose 3.4 mg/kg; details: in vivo
[8] = AUC in BALB/c mouse at 3.4 mg/kg, iv measured by LC-MS/MS analysis; format: ADME, organism-based; design: dose 3.4 mg/kg; details: in vivo
[9] = Clearance in BALB/c mouse at 3.4 mg/kg, iv measured by LC-MS/MS analysis; format: ADME, organism-based; details: in vivo
[10] = Cmax in BALB/c mouse at 13.5 mg/kg, po measured by LC-MS/MS analysis; format: ADME, organism-based; design: route oral, dose 13.5 mg/kg; details: in vivo
Bcr/Abl fusion protein = Bcr/Abl fusion protein (Homo sapiens, UniProt P00519); assay: Inhibition of BCR-ABL (unknown origin) expressed in mouse BaF3 cells assessed as reduction in cell proliferation incubated for 48 hrs by cell proliferation assay; format: cell-based
BaF3 [11] = assay: cells; details: Mus musculus, BaF3, 48 h
Description: Antiproliferative activity against mouse BaF3 cells assessed as reduction in cell proliferation incubated for 48 hrs by cell proliferation assay

[12] = AUC in BALB/c mouse at 2 mg/kg, iv measured by LC-MS/MS analysis; format: ADME, organism-based; design: dose 2 mg/kg; details: in vivo
[13] = Half life in BALB/c mouse at 2 mg/kg, iv measured by LC-MS/MS analysis; format: ADME, organism-based; details: in vivo
[14] = Cmax nude mouse xenografted with KIF5B-RET BaF3 cells xenografted at 3 mg/kg, po qd for 14 days; format: ADME, organism-based; design: route oral, time 14 day, dose 3 mg/kg; details: in vivo
[15] = Clearance in BALB/c mouse at 2 mg/kg, iv measured by LC-MS/MS analysis; format: ADME, organism-based; details: in vivo
[16] = Cmax in BALB/c mouse at 10 mg/kg, po measured by LC-MS/MS analysis; format: ADME, organism-based; design: route oral, dose 10 mg/kg; details: in vivo
[17] = Half life in BALB/c mouse at 10 mg/kg, po measured by LC-MS/MS analysis; format: ADME, organism-based; details: in vivo
[18] = fCmax in nude mouse xenografted with KIF5B-RET BaF3 cells xenografted at 3 mg/kg, po qd for 4 days; details: in vivo, 96 h
[19] = Plasma protein binding in mouse at 5 uM measured after 16 hrs by LC-MS/MS based rapid equilibrium dialysis analysis; format: ADME, cell-free; details: read-out: PPB (converted)
[20] = Volume of distribution at steady state in BALB/c mouse at 2 mg/kg, iv measured by LC-MS/MS analysis; format: ADME, organism-based; details: in vivo, read-out: Vdss
[21] = Oral bioavailability in BALB/c mouse at 10 mg/kg measured by LC-MS/MS analysis; format: ADME, organism-based; details: in vivo
[22] = AUC in BALB/c mouse at 10 mg/kg, po measured by LC-MS/MS analysis; format: ADME, organism-based; design: dose 10 mg/kg; details: in vivo
[23] = fAUC in nude mouse xenografted with KIF5B-RET BaF3 cells xenografted at 3 mg/kg, po qd for 4 days; details: in vivo, 96 h
[24] = Toxicity in nude mouse transfected with mouse KIF5B-RET BaF3 cells assessed as adverse effect at 10 mg/kg, po qd measured after 14 days; format: organism-based; details: in vivo, 336 h, time 14 day
[25] = target: T1, Voltage-gated inwardly rectifying potassium channel KCNH2 (Homo sapiens, UniProt Q12809); assay: Displacement of [3H]-dofetilide from human ERG expressed in CHO cell after 90 mins by microbeta liquid scintillation counting method; format: cell-based
[26] = Cmax in BALB/c mouse at 2 mg/kg, iv measured by LC-MS/MS analysis; format: ADME, organism-based; design: route intravenous, dose 2 mg/kg; details: in vivo
BaF3 [27] = assay: Antitumor activity against mouse KIF5B-RET BaF3 cells xenografted in nude mouse assessed as tumor regression at 3 mg/kg, po qd measured after 12 days; details: time 12.0 day
[28] = Toxicity in nude mouse transfected with mouse KIF5B-RET BaF3 cells assessed as adverse effect at 30 mg/kg, po qd measured after 14 days; format: organism-based; details: in vivo, 336 h, time 14 day
[29] = AUC in nude mouse xenografted with KIF5B-RET BaF3 cells xenografted at 3 mg/kg, po qd for 14 days; format: ADME, organism-based; design: time 14 day, dose 3 mg/kg; details: in vivo
[30] = target: T1, Voltage-gated inwardly rectifying potassium channel KCNH2; assay: Inhibition of human ERG expressed in CHO cells by manual patch clamp assay; format: cell-based

Chain of Bcr/Abl fusion protein (P00519 whole entry, the tested form may be a part): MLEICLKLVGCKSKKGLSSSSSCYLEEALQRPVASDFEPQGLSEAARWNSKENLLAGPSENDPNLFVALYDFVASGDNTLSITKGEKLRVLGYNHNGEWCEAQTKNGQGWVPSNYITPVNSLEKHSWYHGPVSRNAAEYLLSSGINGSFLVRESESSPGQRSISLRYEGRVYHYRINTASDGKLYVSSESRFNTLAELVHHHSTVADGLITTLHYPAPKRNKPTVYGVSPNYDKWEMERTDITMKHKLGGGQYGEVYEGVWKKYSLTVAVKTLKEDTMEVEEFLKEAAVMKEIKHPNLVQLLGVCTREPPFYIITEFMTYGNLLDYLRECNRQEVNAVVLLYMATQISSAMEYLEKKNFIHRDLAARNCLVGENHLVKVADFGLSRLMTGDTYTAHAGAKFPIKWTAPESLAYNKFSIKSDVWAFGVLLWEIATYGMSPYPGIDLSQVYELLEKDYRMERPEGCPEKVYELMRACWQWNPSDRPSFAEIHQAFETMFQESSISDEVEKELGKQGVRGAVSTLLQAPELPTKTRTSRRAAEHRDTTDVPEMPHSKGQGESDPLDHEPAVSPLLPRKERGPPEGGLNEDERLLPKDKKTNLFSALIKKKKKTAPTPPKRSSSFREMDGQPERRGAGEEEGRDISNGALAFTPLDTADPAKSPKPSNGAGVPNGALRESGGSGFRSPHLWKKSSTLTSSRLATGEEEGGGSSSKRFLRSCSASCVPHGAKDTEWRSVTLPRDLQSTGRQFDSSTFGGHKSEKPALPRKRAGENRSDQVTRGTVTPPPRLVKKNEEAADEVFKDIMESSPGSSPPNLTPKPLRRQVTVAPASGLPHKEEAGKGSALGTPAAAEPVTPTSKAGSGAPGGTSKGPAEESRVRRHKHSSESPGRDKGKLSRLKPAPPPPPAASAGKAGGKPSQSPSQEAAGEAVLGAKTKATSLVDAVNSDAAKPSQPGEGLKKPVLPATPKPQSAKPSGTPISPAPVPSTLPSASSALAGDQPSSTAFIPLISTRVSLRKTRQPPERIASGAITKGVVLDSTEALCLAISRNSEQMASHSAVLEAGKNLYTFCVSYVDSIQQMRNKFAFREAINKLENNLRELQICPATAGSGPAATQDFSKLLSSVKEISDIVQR
Chain of Bcr/Abl fusion protein (P11274 whole entry, further chain, the tested form may be a part): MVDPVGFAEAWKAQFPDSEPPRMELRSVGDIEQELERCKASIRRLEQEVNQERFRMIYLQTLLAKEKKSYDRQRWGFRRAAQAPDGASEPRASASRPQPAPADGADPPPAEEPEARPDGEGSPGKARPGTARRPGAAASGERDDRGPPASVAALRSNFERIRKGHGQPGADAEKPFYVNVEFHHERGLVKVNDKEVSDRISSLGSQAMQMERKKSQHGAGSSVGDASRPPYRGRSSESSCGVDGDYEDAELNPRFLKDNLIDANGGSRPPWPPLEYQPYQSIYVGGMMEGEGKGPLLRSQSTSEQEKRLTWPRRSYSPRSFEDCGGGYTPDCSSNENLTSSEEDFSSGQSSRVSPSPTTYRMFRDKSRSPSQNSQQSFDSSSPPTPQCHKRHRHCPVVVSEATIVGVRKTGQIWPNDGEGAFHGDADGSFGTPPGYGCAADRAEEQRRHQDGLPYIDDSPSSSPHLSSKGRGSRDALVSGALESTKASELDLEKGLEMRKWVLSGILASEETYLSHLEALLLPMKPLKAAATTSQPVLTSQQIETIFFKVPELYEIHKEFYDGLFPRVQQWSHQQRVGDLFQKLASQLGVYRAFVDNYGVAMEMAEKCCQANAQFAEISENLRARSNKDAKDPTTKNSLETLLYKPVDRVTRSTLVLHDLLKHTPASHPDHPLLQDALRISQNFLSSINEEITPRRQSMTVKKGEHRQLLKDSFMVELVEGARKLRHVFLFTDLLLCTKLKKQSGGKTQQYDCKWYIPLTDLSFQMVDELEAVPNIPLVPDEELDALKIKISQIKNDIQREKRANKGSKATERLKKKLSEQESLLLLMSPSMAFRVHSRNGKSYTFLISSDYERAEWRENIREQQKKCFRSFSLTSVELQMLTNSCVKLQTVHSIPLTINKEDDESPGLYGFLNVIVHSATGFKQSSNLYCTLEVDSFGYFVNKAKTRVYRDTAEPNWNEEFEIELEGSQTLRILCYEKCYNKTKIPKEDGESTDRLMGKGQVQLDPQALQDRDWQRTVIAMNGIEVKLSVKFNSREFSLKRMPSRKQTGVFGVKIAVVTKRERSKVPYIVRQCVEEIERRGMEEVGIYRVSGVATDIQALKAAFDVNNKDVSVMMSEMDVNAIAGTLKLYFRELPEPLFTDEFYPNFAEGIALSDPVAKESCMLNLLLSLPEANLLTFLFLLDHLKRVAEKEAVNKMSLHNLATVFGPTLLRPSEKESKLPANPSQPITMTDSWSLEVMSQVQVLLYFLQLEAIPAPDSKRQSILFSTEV
T1 sequence (Q12809 whole entry): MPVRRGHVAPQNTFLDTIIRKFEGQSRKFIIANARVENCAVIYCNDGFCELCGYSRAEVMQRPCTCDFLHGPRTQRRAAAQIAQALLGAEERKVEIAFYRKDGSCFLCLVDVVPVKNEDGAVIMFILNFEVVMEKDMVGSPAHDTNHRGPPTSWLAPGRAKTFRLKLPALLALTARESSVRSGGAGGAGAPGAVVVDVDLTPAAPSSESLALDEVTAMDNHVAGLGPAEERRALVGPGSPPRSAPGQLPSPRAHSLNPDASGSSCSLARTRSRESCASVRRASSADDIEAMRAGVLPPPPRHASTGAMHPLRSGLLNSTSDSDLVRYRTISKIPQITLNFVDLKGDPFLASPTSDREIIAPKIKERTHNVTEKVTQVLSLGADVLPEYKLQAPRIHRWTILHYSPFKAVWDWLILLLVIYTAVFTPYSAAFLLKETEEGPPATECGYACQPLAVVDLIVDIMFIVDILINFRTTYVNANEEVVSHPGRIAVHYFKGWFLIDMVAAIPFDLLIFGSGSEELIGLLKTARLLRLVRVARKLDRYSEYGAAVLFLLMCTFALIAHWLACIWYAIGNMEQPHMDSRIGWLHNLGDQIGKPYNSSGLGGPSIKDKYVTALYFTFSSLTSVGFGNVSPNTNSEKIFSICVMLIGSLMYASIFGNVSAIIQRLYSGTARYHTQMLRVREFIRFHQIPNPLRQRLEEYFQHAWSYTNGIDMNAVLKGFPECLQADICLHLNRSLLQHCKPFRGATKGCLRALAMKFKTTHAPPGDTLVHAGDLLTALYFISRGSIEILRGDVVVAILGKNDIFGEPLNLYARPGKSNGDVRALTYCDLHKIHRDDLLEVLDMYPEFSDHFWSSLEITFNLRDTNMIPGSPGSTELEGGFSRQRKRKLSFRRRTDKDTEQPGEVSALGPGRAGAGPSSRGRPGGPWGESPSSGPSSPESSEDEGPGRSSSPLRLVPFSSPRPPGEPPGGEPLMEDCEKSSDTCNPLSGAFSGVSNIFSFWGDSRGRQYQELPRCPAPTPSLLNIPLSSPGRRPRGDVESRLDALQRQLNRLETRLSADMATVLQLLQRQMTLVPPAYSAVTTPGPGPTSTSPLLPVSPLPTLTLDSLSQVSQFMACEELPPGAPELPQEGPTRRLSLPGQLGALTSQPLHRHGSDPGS
Chain of Proto-oncogene tyrosine-protein kinase receptor Ret (P07949 whole entry): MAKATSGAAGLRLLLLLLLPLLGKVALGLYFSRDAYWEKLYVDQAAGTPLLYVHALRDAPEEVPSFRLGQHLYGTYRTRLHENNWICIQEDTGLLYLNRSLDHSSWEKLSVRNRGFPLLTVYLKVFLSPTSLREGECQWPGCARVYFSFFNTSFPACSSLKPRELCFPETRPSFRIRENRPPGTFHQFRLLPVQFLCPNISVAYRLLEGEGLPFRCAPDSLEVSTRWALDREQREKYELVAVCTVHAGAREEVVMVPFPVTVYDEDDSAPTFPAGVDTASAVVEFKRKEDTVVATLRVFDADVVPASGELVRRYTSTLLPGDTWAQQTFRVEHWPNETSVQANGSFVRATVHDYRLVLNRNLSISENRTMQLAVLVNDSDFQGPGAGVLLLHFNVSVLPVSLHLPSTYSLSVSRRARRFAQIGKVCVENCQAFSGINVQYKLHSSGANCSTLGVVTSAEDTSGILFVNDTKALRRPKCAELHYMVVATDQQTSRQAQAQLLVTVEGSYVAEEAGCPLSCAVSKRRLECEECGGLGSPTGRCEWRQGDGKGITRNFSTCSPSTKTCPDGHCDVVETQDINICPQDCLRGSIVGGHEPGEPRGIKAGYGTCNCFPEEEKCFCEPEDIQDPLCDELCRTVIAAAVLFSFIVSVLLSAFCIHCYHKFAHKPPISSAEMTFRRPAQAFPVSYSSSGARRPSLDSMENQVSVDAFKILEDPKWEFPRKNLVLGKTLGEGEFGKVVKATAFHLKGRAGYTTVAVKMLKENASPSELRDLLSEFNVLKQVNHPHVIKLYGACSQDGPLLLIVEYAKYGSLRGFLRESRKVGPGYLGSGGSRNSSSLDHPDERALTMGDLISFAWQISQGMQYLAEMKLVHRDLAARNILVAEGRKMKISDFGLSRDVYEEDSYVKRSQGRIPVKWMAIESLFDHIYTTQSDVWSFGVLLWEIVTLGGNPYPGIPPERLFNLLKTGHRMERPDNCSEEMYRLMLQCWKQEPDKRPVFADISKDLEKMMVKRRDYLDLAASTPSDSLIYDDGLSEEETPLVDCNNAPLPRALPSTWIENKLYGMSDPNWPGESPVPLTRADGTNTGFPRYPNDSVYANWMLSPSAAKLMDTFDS

SMILES: CC(=O)N1CCN([C@H]2C[C@@H](n3cc(-c4cc(O)ccc4F)c4c(N)ncnc43)C2)CC1
- AUC [1]: 0.3 µM·h
- bioavailability [2]: 4%
- half-life [3]: 1.3 h
- IC50 [4]: 0.54 nM
- Vd [5]: 1.4 L/kg
- half-life [6]: 1.6 h
- Cmax [7]: 6.4 µM
- AUC [8]: 2 µM·h
- clearance [9]: 65 mL/min/kg
- Cmax [10]: 0.2 µM
- IC50 (Bcr/Abl fusion protein): 4200 nM

SMILES: Nc1ncnc2c1c(-c1cccc(O)c1)cn2[C@H]1C[C@@H](CO)C1
- IC50 (Bcr/Abl fusion protein): 43 nM

SMILES: COC(=O)NC12CCC(n3cc(-c4ccc(Cl)c(N)c4)c4c(N)ncnc43)(CC1)CC2
- AUC [12]: 54 µM·h
- half-life [13]: 10 h
- Cmax [14]: 7.4 µM
- clearance [15]: 1.4 mL/min/kg
- Cmax [16]: 9.5 µM
- half-life [17]: 22 h
- fCmax [18]: 0.031 µM
- fraction unbound at 16 h, 5 µM [19]: 0.0042
- Vd [20]: 1.1 L/kg
- bioavailability [21]: 58%
- IC50 (BaF3 [11]): 2600 nM
- AUC [22]: 160 µM·h
- fAUC [23]: 0.45 µM·h
- Activity [24]: Non-Toxic
- IC50 [25]: 9900 nM
- Cmax [26]: 5.6 µM
- Activity (BaF3 [27]): Active
- Activity [28]: Non-Toxic
- AUC at 336 h [29]: 106 µM·h
- IC50 [30]: 3000 nM

SMILES: Nc1ncnc2c1c(-c1cccc(O)c1)cn2C1CCCC1
- IC50 (BaF3 [11]): 1600 nM

The next lines start with the values.

- IC50 (BaF3 [11]): > 10000 nM
SMILES: CC(=O)N1CCN([C@H]2C[C@@H](n3cc(-c4ccccc4O)c4c(N)ncnc43)C2)CC1

- IC50 (BaF3 [11]): > 10000 nM
SMILES: CC(=O)N1CCN([C@H]2C[C@@H](n3cc(-c4ccc(O)cc4)c4c(N)ncnc43)C2)CC1
